In PubChem BioAssay (NCI):
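Compound exposure: 48 hours, 5 concentrations, 96-well plates. GI50 is the concentration that inhibits growth by half. TGI denotes the concentration required for complete inhibition of growth.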

How the values were obtained:
Assay in all cases: growth of human tumour cells (NCI), 48 h
MOLT-4 leukemia = tested on: MOLT-4 leukemia
NCI/ADR-RES ovarian = tested on: NCI/ADR-RES ovarian
EKVX NSCLC = tested on: EKVX NSCLC
DU-145 prostate = tested on: DU-145 prostate
PC-3 prostate = tested on: PC-3 prostate
SNB-19 CNS = tested on: SNB-19 CNS
SNB-75 CNS = tested on: SNB-75 CNS
RXF 393 renal = tested on: RXF 393 renal
HCT-15 colon = tested on: HCT-15 colon
NCI-H522 lung = tested on: NCI-H522 lung
SK-MEL-2 melanoma = tested on: SK-MEL-2 melanoma
BT-549 breast = tested on: BT-549 breast
SF-295 CNS = tested on: SF-295 CNS
MDA-MB-231 breast = tested on: MDA-MB-231 breast
KM12 colon = tested on: KM12 colon
NCI-H226 lung = tested on: NCI-H226 lung
LOX IMVI melanoma = tested on: LOX IMVI melanoma
SK-MEL-5 melanoma = tested on: SK-MEL-5 melanoma
SW-620 colon = tested on: SW-620 colon
CCRF-CEM leukemia = tested on: CCRF-CEM leukemia
ACHN renal = tested on: ACHN renal
HCT-116 colon = tested on: HCT-116 colon
SN12C renal = tested on: SN12C renal
786-0 renal = tested on: 786-0 renal
CAKI-1 renal = tested on: CAKI-1 renal
M14 melanoma = tested on: M14 melanoma

Compound: CCN1C2=C(SC(=S)C1=C1SC(C(=O)OC)=C(C(=O)OC)S1)SC(=Nc1ccc(OC)cc1)C2=O
- GI50 (MOLT-4 leukemia): 1.54 µM
- TGI (MOLT-4 leukemia): 5.29 µM
- GI50 (NCI/ADR-RES ovarian): 3.05 µM
- TGI (NCI/ADR-RES ovarian): 7.19 µM
- GI50 (EKVX NSCLC): 3.62 µM
- TGI (EKVX NSCLC): 21.3 µM
- GI50 (DU-145 prostate): 1.73 µM
- TGI (DU-145 prostate): 3.43 µM
- GI50 (PC-3 prostate): 3.01 µM
- TGI (PC-3 prostate): > 100 µM
- GI50 (SNB-19 CNS): 2.89 µM
- TGI (SNB-19 CNS): 10.8 µM
- GI50 (SNB-75 CNS): 1.1 µM
- TGI (SNB-75 CNS): 2.53 µM
- GI50 (RXF 393 renal): 1.88 µM
- TGI (RXF 393 renal): 3.98 µM
- GI50 (HCT-15 colon): 3.02 µM
- TGI (HCT-15 colon): 33.3 µM
- GI50 (NCI-H522 lung): 1.59 µM
- TGI (NCI-H522 lung): 3.96 µM
- GI50 (SK-MEL-2 melanoma): 2.09 µM
- TGI (SK-MEL-2 melanoma): 5.29 µM
- GI50 (BT-549 breast): 1.71 µM
- TGI (BT-549 breast): 4.06 µM
- GI50 (SF-295 CNS): 1.31 µM
- TGI (SF-295 CNS): 3.55 µM
- GI50 (MDA-MB-231 breast): 3.39 µM
- TGI (MDA-MB-231 breast): > 100 µM
- GI50 (KM12 colon): 1.67 µM
- TGI (KM12 colon): 3.13 µM
- GI50 (NCI-H226 lung): 2.25 µM
- TGI (NCI-H226 lung): 5.26 µM
- GI50 (LOX IMVI melanoma): 1.69 µM
- TGI (LOX IMVI melanoma): 3.43 µM
- GI50 (SK-MEL-5 melanoma): 1.63 µM
- TGI (SK-MEL-5 melanoma): 3.08 µM
- GI50 (SW-620 colon): 1.77 µM
- TGI (SW-620 colon): 3.7 µM
- GI50 (CCRF-CEM leukemia): 2.09 µM
- TGI (CCRF-CEM leukemia): > 100 µM
- GI50 (ACHN renal): 1.82 µM
- TGI (ACHN renal): 3.58 µM
- GI50 (HCT-116 colon): 1.59 µM
- TGI (HCT-116 colon): 3.11 µM
- GI50 (SN12C renal): 2.76 µM
- TGI (SN12C renal): > 100 µM
- GI50 (786-0 renal): 1.8 µM
- TGI (786-0 renal): 3.34 µM
- GI50 (CAKI-1 renal): 1.81 µM
- TGI (CAKI-1 renal): 3.9 µM
- GI50 (M14 melanoma): 1.75 µM
